ChEMBL document CHEMBL3885881, “DrugMatrix”

Species on record: Rattus norvegicus
Experiment: DrugMatrix - Regimen: Daily Repeat
Type: toxicity, organism-based, Sprague-Dawley
Parameters: regimen Daily Repeat, gender Male, age 6-8 weeks
Conditions: in vivo, po, route oral GAVAGE, vehicle 100 % WATER; for ABSOLUTE BASOPHIL / ABSOLUTE EOSINOPHIL / ABSOLUTE LYMPHOCYTE / ABSOLUTE MONOCYTE / ABSOLUTE SEGMENTED NEUTROPHIL / BASOPHIL / EOSINOPHIL / ERYTHROCYTE COUNT / HEMATOCRIT / HEMOGLOBIN / LEUKOCYTE COUNT / LYMPHOCYTE / MEAN CORPUSCULAR HEMOGLOBIN / MEAN CORPUSCULAR HEMOGLOBIN CONCENTRATION / MEAN CORPUSCULAR VOLUME / MONOCYTE / NEUTROPHIL / NUCLEATED RED BLOOD CELLS / PLATELET COUNT: tissue Blood; for ALANINE AMINOTRANSFERASE / ALBUMIN / ALKALINE PHOSPHATASE / ASPARTATE AMINOTRANSFERASE / BLOOD UREA NITROGEN / CARBON DIOXIDE / CHLORIDE / CHOLESTEROL / CREATINE PHOSPHOKINASE / CREATININE / GLUCOSE / LACTATE DEHYDROGENASE / LIPASE / PHOSPHORUS / POTASSIUM / SODIUM / TOTAL BILIRUBIN / TOTAL PROTEIN / URIC ACID: tissue Plasma
[1] = 0 mg/kg, 72 h, dose level Control, time 3 day
[2] = 0 mg/kg, 120 h, dose level Control, time 5 day
[3] = 39 mg/kg, 72 h, dose level Low, time 3 day

## C[C@]12Cc3c[nH]nc3C[C@@H]1CC[C@@H]1[C@@H]2CC[C@@]2(C)[C@H]1CC[C@]2(C)O [STANOZOLOL]
[1]
  ABSOLUTE BASOPHIL: 0 CELLS/uL
  ABSOLUTE EOSINOPHIL: 32.5 CELLS/uL
  ABSOLUTE LYMPHOCYTE: 9305.83 CELLS/uL
  ABSOLUTE MONOCYTE: 43.83 CELLS/uL
  ABSOLUTE SEGMENTED NEUTROPHIL: 817.83 CELLS/uL
  BASOPHIL: 0%
  EOSINOPHIL: 0.33%
  ERYTHROCYTE COUNT: 5.38 x10E6/uL
  HEMATOCRIT: 33.63%
  HEMOGLOBIN: 13.17 G/DL
  LEUKOCYTE COUNT: 10.2 x10E3/uL
  LYMPHOCYTE: 91.17%
  MEAN CORPUSCULAR HEMOGLOBIN: 24.5 pg
  MEAN CORPUSCULAR HEMOGLOBIN CONCENTRATION: 39.13 G/DL
  MEAN CORPUSCULAR VOLUME: 62.53 fL
  MONOCYTE: 0.5%
  NEUTROPHIL: 8%
  NUCLEATED RED BLOOD CELLS: 0.17 /100WBC
  PLATELET COUNT: 858 x10E3/uL
  ALANINE AMINOTRANSFERASE: 55.67 u/L
  ALBUMIN: 4.07 G/DL
  ALKALINE PHOSPHATASE: 337 u/L
  ASPARTATE AMINOTRANSFERASE: 84 u/L
  BLOOD UREA NITROGEN: 13.17 mg/dL
  CARBON DIOXIDE: 34.17 mmol/L
  CHLORIDE: 99.33 MEQ/L
  CHOLESTEROL: 78.83 mg/dL
  CREATINE PHOSPHOKINASE: 576.83 u/L
  CREATININE: 0.17 mg/dL
  GLUCOSE: 152.67 mg/dL
  LACTATE DEHYDROGENASE: 147.83 u/L
  LIPASE: 9.5 u/L
  PHOSPHORUS: 10.78 mg/dL
  POTASSIUM: 6.34 MEQ/L
  SODIUM: 144.12 MEQ/L
  TOTAL BILIRUBIN: 0.18 mg/dL
  TOTAL PROTEIN: 6.08 G/DL
  URIC ACID: 0.65 mg/dL
[2]
  ABSOLUTE BASOPHIL: 0 CELLS/uL
  ABSOLUTE EOSINOPHIL: 31.17 CELLS/uL
  ABSOLUTE LYMPHOCYTE: 7918.33 CELLS/uL
  ABSOLUTE MONOCYTE: 58.33 CELLS/uL
  ABSOLUTE SEGMENTED NEUTROPHIL: 725.5 CELLS/uL
  BASOPHIL: 0%
  EOSINOPHIL: 0.33%
  ERYTHROCYTE COUNT: 5.32 x10E6/uL
  HEMATOCRIT: 33.53%
  HEMOGLOBIN: 13.17 G/DL
  LEUKOCYTE COUNT: 8.73 x10E3/uL
  LYMPHOCYTE: 90.33%
  MEAN CORPUSCULAR HEMOGLOBIN: 24.82 pg
  MEAN CORPUSCULAR HEMOGLOBIN CONCENTRATION: 39.33 G/DL
  MEAN CORPUSCULAR VOLUME: 63.12 fL
  MONOCYTE: 0.67%
  NEUTROPHIL: 8.67%
  NUCLEATED RED BLOOD CELLS: 0 /100WBC
  PLATELET COUNT: 1144.83 x10E3/uL
  ALANINE AMINOTRANSFERASE: 60.5 u/L
  ALBUMIN: 3.97 G/DL
  ALKALINE PHOSPHATASE: 343.17 u/L
  ASPARTATE AMINOTRANSFERASE: 80.83 u/L
  BLOOD UREA NITROGEN: 15 mg/dL
  CARBON DIOXIDE: 31 mmol/L
  CHLORIDE: 99.75 MEQ/L
  CHOLESTEROL: 71.5 mg/dL
  CREATINE PHOSPHOKINASE: 237.17 u/L
  CREATININE: 0.17 mg/dL
  GLUCOSE: 137 mg/dL
  LACTATE DEHYDROGENASE: 146.17 u/L
  LIPASE: 11.5 u/L
  PHOSPHORUS: 10.13 mg/dL
  POTASSIUM: 6 MEQ/L
  SODIUM: 145 MEQ/L
  TOTAL BILIRUBIN: 0.13 mg/dL
  TOTAL PROTEIN: 5.82 G/DL
  URIC ACID: 0.62 mg/dL
[3]
  ABSOLUTE BASOPHIL: 0 CELLS/uL
  ABSOLUTE EOSINOPHIL: 60.33 CELLS/uL
  ABSOLUTE LYMPHOCYTE: 8653.33 CELLS/uL
  ABSOLUTE MONOCYTE: 60.33 CELLS/uL
  ABSOLUTE SEGMENTED NEUTROPHIL: 526 CELLS/uL
  BASOPHIL: 0%
  EOSINOPHIL: 0.67%
  ERYTHROCYTE COUNT: 5.9 x10E6/uL
  HEMATOCRIT: 35.57%
  HEMOGLOBIN: 13.63 G/DL
  LEUKOCYTE COUNT: 9.3 x10E3/uL
  LYMPHOCYTE: 93.33%
  MEAN CORPUSCULAR HEMOGLOBIN: 23.13 pg
  MEAN CORPUSCULAR HEMOGLOBIN CONCENTRATION: 38.33 G/DL
  MEAN CORPUSCULAR VOLUME: 60.33 fL
  MONOCYTE: 0.67%
  NEUTROPHIL: 5.33%
  NUCLEATED RED BLOOD CELLS: 0 /100WBC
  PLATELET COUNT: 1025.67 x10E3/uL
  ALANINE AMINOTRANSFERASE: 58 u/L
  ALBUMIN: 4.17 G/DL
  ALKALINE PHOSPHATASE: 448.33 u/L
  ASPARTATE AMINOTRANSFERASE: 81 u/L
  BLOOD UREA NITROGEN: 13.67 mg/dL
  CARBON DIOXIDE: 34.67 mmol/L
  CHLORIDE: 99.33 MEQ/L
  CHOLESTEROL: 57.33 mg/dL
  CREATINE PHOSPHOKINASE: 465.67 u/L
  CREATININE: 0.14 mg/dL
  GLUCOSE: 134.67 mg/dL
  LACTATE DEHYDROGENASE: 171.33 u/L
  LIPASE: 9 u/L
  PHOSPHORUS: 11.43 mg/dL
  POTASSIUM: 6.05 MEQ/L
  SODIUM: 145.03 MEQ/L
  TOTAL BILIRUBIN: 0.2 mg/dL
  TOTAL PROTEIN: 6.13 G/DL
  URIC ACID: 0.6 mg/dL
